The target of series [1] is T1, human soluble ENPP1 (Homo sapiens, UniProt P22413).
T1 construct: 20 ng of human soluble ENPP1
T1 sequence (P22413 103-925 limits assumed): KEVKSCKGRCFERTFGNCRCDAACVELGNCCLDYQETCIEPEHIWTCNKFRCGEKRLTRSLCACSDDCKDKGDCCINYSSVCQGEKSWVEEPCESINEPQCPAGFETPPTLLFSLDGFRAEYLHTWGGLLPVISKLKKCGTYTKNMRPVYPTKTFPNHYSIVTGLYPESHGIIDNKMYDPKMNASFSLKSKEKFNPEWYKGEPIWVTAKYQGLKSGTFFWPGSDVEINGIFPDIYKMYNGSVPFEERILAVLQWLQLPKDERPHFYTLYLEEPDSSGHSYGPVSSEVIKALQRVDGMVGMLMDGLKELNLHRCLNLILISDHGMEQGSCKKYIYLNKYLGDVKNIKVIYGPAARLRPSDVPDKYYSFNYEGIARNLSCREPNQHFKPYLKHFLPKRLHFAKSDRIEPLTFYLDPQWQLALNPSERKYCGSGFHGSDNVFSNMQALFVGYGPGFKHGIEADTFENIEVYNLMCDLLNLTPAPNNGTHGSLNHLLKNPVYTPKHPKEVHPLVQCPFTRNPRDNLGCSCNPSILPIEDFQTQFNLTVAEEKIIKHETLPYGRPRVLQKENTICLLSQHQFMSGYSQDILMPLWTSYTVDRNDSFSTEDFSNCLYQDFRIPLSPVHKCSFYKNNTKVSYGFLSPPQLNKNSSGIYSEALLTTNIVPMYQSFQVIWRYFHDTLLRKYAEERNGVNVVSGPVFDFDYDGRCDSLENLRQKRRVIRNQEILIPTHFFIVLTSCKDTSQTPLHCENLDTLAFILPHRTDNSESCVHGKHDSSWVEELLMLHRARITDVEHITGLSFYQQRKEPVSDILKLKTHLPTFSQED
In words: ENPP1 activity assay using p-Nitrophenyl-5′-TMP as a substrate. The format is biochemical. A digest of the protocol: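 Human soluble ENPP1 (20 ng) was preincubated with inhibitor for 30 min at room temperature. TMP-pNP was then added as a 2 mM […] solution and incubated 1 h at RT, with p-nitrophenol formation read by OD. IC50 came from four-parameter fits of % inhibition relative to no-inhibitor and blank controls.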

Series [2] has as its target T1, human soluble ENPP1. Kind of series: ENPP1 activity assay using p-Nitrophenyl-5′-AMP as a substrate. The class given is biochemical. A digest of the protocol: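 Human soluble ENPP1 (35 ng) preincubated with inhibitor 30 min at RT, then p-nitrophenyl-5′-AMP added (3 mM solution, 2× final) and incubated 1 h at RT. p-Nitrophenolate release read at OD 405 nm; % inhibition vs no-inhibitor and blank controls, IC50 from four-parameter fit.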

Series [3] in a line: Liver microsome stability, human. The format is in vitro ADME. The following applies: for Hepatic extraction ratio Re: Human liver microsome; for Half-life t1/2 (min): Human liver microsome 0.5 mg/mL, NADPH and UDPGA, 37° C. On the procedure: (§1) Liver microsome assay was used to evaluate the metabolic stability of I-VI. The test article at the concentration of […] was incubated with 0.5 mg/mL liver microsome in the presence of NADPH and UDPGA as the co-factors for 0, 15, 30, 45 and 60 minutes. The incubation was carried out at 37° C. with 5% CO2 and saturating humidity. Disappearance of the test article was monitored by LC/MS/MS. the disappearance half-life (t1/2), intrinsic clearance and hepatic extraction ratio were determined.

A short description of series [4]: Liver microsome stability, mouse. The class given is in vitro ADME. As to the method:
as §1
On the technique in general: Liver microsomes are vesicles of endoplasmic reticulum, rich in cytochrome P450 enzymes.

Series [5] deals with T2, ENPP-1, HEK293 cells (Homo sapiens, UniProt P22413).
T2 construct: ENPP-1 were mainly expressed on the surface of cell membrane; endogenous in cells; host or cells: HEK293
T2 sequence (P22413 1-925): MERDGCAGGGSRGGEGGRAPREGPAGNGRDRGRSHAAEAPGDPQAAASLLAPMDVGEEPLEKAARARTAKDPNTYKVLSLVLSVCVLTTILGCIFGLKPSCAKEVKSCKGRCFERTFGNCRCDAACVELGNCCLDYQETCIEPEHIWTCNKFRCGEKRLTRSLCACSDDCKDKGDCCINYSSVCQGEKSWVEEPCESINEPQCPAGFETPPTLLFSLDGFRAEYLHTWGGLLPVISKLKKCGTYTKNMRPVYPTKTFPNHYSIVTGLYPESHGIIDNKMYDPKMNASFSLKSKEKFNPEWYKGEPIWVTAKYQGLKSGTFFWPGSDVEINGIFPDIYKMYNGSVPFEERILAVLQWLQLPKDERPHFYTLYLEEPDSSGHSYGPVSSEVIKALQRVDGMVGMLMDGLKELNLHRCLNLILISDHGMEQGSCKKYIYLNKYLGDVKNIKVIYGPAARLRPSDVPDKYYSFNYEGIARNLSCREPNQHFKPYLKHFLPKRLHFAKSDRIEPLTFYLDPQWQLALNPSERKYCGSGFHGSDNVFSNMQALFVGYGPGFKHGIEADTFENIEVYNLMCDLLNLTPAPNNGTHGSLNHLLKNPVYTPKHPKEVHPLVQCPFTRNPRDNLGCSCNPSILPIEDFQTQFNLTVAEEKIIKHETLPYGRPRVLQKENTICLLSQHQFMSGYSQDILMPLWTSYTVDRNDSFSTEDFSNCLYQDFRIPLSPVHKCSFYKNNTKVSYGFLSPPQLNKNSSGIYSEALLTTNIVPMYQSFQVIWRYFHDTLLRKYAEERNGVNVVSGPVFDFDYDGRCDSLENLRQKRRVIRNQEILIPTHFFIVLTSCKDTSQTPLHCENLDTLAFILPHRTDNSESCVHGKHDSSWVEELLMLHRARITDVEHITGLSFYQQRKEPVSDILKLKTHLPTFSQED
In words: Cellular enzymatic assay of ENPP-1 inhibitors using TMP-pNP as substrate, HEK 293 cells. The class given is cell-based. Particulars: for inhibition at 20 µM: HEK293, read-out: Inhibition (at 20 μM). As to the method:
(§2) ENPP-1 were mainly expressed on the surface of cell membrane where it hydrolytes 2′3′-cGAMP to generate 5′-GMP and 5′-AMP. ENPP-1 also has the ability to hydrolyzes artificial phosphoric acid ester TMP-pNP to nucleotide-5′-monophosphate and p-nitrophcnol there, which is a chromogenic product.
(§3) 8 point of different concentrations of each inhibitor were prepared with the final assay concentrations starting at 20 μM. 3× series dilution by DMEM medium without FBS was applied. Prior to adding inhibitors, 75000 cells per well were incubated at 37° C., 5% CO2 in DMEM for 24 hours. After removing the supernatant medium, 50 μL inhibitor solution was added into each well with cultured cells and incubate at 37° C., 5% CO2 for 60 minutes.
(§4) The IC50 values for percent inhibition versus compound concentration are determined by fitting the inhibition curves using a four-parameter variable slope model in GraphPad Prism® 8.

Series [6] has as its target T3, ENPP-1, MDA-MB-231 cells (Homo sapiens, UniProt P22413).
T3 sequence (P22413 1-925): T2 sequence (P22413 1-925)
Kind of series: cell-based. Particulars: for inhibition at 20 µM: MDA-MB-231, read-out: % Inhibition (at 20 μM).

Series [7] addresses T4, ENPP-1, Saos-2 cells (Homo sapiens, UniProt P22413).
T4 construct: ENPP-1 were mainly expressed on the surface of cell membrane; endogenous in cells; host or cells: Saos-2
T4 sequence (P22413 1-925): T2 sequence (P22413 1-925)
In words: Cellular enzymatic assay of ENPP-1 inhibitors using TMP-pNP as substrate, Saos-2 cells. The class given is cell-based. The following applies: for inhibition at 20 µM: SAOS-2, read-out: % Inhibition (@20 μM). As to the method: as §2, §3, §4

The test system of series [8] is cGAMP activated THP-1 cells. Kind of series: ENPP1 inhibitors screening on cGAMP activated THP-1 cells (IFN-β ELISA). The format is cell-based. Particulars: THP-1 cells with 2′3′-cGAMP, 24 hours, FIGS. 1A-1E. As to the method:
THP-1 cells from bulk cultures were counted and suspended in RPMI 1640, 20% FBS, 2.5 mM L-alanyl-L-glutamine at a concentration of 5.5×10^6 cells/mL. The THP-1 cells were subsequently seeded into 96 well round bottom plates 180 μL/well (1×10^6 cells per well), incubated for 1 hour at 37° C., 5% CO2.
Test compounds were screened in triplicate on THP-1 cells at a final concentration of 10 μM. A working solutions at 0.2 mM. Each well contains 180 μL of THP-1 cell suspension, 10 μL (30 μM, 40 μM or 50 μM) 2′3′-cGAMP (InvivoGen, catalog #tlrl-nacga23) solution (600 μM, 800 μM or 1000 μM) and 10 μL test compound working solution. Incubate for 1 hour.
Vehicle control wells contain 2′3′-cGAMP at concentrations of […] and 50 μM without any test compound. Positive control, 2′3′-cGAMP or 2′,3′-cGAM(PS)2 (Rp/Sp) (InvivoGen, cat #tlrl-nacga2srs) at 40 μM and 80 μM (final concentration).
The final assay volume were 200 μL/well contains: 1) THP-1 cells=180 μL, 2) test compounds=10 μL, 3) 2′3′-cGAMP or 2′3′-cGAM(PS)2 (Rp/Sp) or vehicle control=10 μL.
After incubation for 24 hours at 37° C., 5% CO2, the supernatants were harvested at 200×g for 10 minutes. Cell culture supernatants were then transferred to a clean plate and stored at −80° C. until ready to analyze for IFN-β levels. The IFN-β levels in cell culture supernatants were determined by ELISA kits (PBL Assay Science, catalog #41410) according to the manufacturer's instructions.
The % increase measured for IFN-β in cells treated by the test compounds 12, 48, 89, 103 and 121 relative to that of untreated cells were tested (as shown in FIGS. 1A-1E).
(In general: An ELISA detects its analyte on a solid surface through an enzyme-linked reagent.)

Each structure is given as a SMILES string.

On to `COc1cc2ncc3ncn(Cc4ccc(S(N)(=O)=O)nc4)c3c2cc1OC` [Compound 10, 5-((7,8-dimethoxy-1H-imidazo[4,5-c]quinolin-1-yl)methyl)pyridine-2-sulfonamide], for which the IC50 (as a rule, the concentration that inhibits the measured activity by half) in series [1] is 1.1 nM. The IC50 in series [2] is 27 nM. Moreover, in series [3], the “Hepatic extraction ratio Re” value was 0 and the “Half-life t1/2 (min)” value is “∞”.
Take `COc1ccc2c(c1)ncc1[nH]c(=O)n(Cc3ccc(S(N)(=O)=O)cc3)c12` [Compound 35, 4-((7-methoxy-2-oxo-2,3-dihydro-1H-imidazo[4,5-c]quinolin-1-yl)methyl)benzenesulfonamide]: the “Hepatic extraction ratio Re” value in series [4] (Mouse liver microsome) and in series [3] was 0 each time. In addition, the “Half-life t1/2 (min)” value was “∞” in series [4] (Mouse liver microsome 0.5 mg/mL, NADPH and UDPGA, 37° C.); “∞” in series [3]. Besides, the half-inhibitory concentration (IC50) is 3400 nM in series [5]; 0.37 nM in series [1]; 1500 nM in series [6]; 5600 nM in series [7]; 35 nM in series [2]. The inhibition (as a rule, the share of the control response that was lost under treatment) at 20 µM was determined as 51% in series [5], 73% in series [6] and 76% in series [7].
Consider `COc1ccc2ncc3ncn(Cc4ccc(S(N)(=O)=O)cc4)c3c2c1` [Compound 36, 4-((8-methoxy-1H-imidazo[4,5-c]quinolin-1-yl)methyl)benzenesulfonamide], for which the “Hepatic extraction ratio Re” value in series [4] (Mouse liver microsome) stood at 0.55. Also, the half-life in series [4] (liver microsomes, Mouse liver microsome 0.5 mg/mL, NADPH and UDPGA, 37° C., read-out: Half-life t1/2) was found to be 49 min. For the same molecule, the microsomal CLint in series [4] (liver microsomes, Mouse liver microsome, read-out: Intrinsic clearance Cl′int, (μL/min/mg protein)) was 28 µL/min/mg. For the same molecule, the IC50 in series [5] was 5000 nM; in series [1], 3.1 nM; in series [6] it was 1500 nM; in series [7], 2000 nM; in series [2] it was 36 nM. Besides, the inhibition at 20 µM in series [5] was found to be 57%; in series [6], 66%; in series [7] it was 48%.
On to `COc1ccc2c(ncc3[nH]c(=O)n(Cc4c(F)cc(S(N)(=O)=O)cc4F)c32)n1` [Compound 103, 3,5-difluoro-4-((7-methoxy-2-oxo-2,3-dihydro-1H-imidazo[4,5-c][1,8]naphthyridin-1-yl)methyl)benzenesulfonamide], for which the IC50 in series [1] was found to be 0.09 nM; in series [6], 34 nM; in series [2], 0.06 nM. The inhibition at 20 µM in series [6] was 87%. Also, the “% increase measured for IFN-β relative to that of untreated cells” value in series [8] is reported as “potently increased the IFN-β levels at very low concentrations”.
The corresponding values for `COc1ccc2c(ncc3[nH]c(=O)n(Cc4ccc(P(=O)(O)O)c(F)c4)c32)n1` [Compound 121, (2-fluoro-4-((7-methoxy-2-oxo-2,3-dihydro-1H-imidazo[4,5-c][1,8]naphthyridin-1-yl)methyl)phenyl)phosphonic acid] are 9.4 nM, 8.2 nM, 31 nM, 91% and “potently increased the IFN-β levels at very low concentrations”.
